What was measured:
[1] = Stability in human liver microsomes at 1 uM in presence of NADPH by LC-MS/MS analysis; format: ADME, microsome; conditions: read-out: Stability
[2] = molecular target: T1, Phosphatidylinositol 4,5-bisphosphate 3-kinase catalytic subunit delta isoform (Homo sapiens, UniProt O00329); assay: Binding affinity to PI3Kdelta (unknown origin); conditions: read-out: Ki(app)
T1 sequence (O00329 whole entry): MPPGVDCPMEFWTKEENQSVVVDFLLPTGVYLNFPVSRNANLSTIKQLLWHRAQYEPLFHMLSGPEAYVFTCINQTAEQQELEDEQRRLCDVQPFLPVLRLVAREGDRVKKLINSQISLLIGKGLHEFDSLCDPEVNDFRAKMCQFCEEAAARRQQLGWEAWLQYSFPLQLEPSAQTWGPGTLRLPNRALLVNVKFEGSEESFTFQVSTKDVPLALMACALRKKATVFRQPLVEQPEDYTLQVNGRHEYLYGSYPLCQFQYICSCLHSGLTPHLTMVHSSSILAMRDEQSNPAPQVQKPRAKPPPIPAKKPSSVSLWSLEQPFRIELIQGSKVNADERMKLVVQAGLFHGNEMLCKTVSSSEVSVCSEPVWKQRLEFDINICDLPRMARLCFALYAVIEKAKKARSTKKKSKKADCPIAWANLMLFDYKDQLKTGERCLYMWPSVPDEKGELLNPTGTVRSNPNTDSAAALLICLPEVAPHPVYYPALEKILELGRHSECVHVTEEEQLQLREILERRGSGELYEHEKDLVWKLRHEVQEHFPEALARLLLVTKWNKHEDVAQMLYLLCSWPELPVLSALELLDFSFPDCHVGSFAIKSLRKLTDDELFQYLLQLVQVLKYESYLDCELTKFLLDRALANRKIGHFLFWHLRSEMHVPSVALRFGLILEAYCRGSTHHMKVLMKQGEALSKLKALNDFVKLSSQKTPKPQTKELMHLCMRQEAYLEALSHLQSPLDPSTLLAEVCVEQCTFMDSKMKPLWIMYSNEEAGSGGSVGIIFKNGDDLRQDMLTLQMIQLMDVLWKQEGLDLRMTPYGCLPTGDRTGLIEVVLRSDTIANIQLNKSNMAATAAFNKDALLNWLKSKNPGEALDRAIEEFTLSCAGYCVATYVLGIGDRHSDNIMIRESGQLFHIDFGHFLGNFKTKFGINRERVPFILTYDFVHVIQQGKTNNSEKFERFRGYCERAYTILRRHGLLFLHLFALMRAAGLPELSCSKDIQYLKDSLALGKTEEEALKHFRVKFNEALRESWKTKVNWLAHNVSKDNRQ

[3] = molecular target: T1, Phosphatidylinositol 4,5-bisphosphate 3-kinase catalytic subunit delta isoform; assay: Inhibition of PI3Kdelta in human whole blood assessed as suppression of CD69 expression
[4] = Apparent permeability from apical to basolateral side in MDCKI cells at 10 uM after 2 hrs; format: ADME, cell-based, Canis lupus familiaris; conditions: dog, MDCK

Row | Compound | CLhep predicted at 1 µM [1] | Ki [2] | IC50 [3] | Papp A→B at 2 h, 10 µM [4]
1 | CC(C)n1ncnc1-c1cn2c(n1)-c1cc(CN3CCN(C(C)(C)C)CC3)ccc1OCC2 | 9.7 mL/min/kg | 2.5 nM |  | 
2 | Cc1nc(-c2cn3c(n2)-c2cc([C@H](C)N4CCN(C(C)(C)C)CC4)c(F)cc2OCC3)n(C(C)C)n1 |  | 2.4 nM |  | 
3 | Cc1nc(-c2cn3c(n2)-c2cc([C@@H](C)N4CCN(C(C)(C)C)CC4)c(C)cc2OCC3)n(C(C)C)n1 | 8.4 mL/min/kg |  |  | 14.2 ×10⁻⁶ cm/s
4 | Cc1nc(-c2cn3c(n2)-c2cc([C@H](C)N4CCN(C(C)(C)C)CC4)ncc2OCC3)n(C(C)C)n1 | < 3.9 mL/min/kg | 1.9 nM | 28 nM | 10 ×10⁻⁶ cm/s
5 | Cc1nc(-c2cn3c(n2)-c2cc([C@@H](C)N4CCN(C(C)(C)C)CC4)ncc2OCC3)n(C(C)C)n1 |  | 2.8 nM |  | 
6 | CC(C)n1ncnc1-c1cn2c(n1)-c1cc(CN3CCC(C(C)(C)O)CC3)ccc1OCC2 | 6.8 mL/min/kg | 20 nM |  | 
7 | CC(C)n1ncnc1-c1cn2c(n1)-c1cc([S@+]([O-])C3CCN(C(C)(C)C)CC3)ccc1OCC2 | 12 mL/min/kg | 12 nM |  | 

Now from value to molecule:

Row | CLhep predicted at 1 µM [1] | Ki [2] | IC50 [3] | Papp A→B at 2 h, 10 µM [4] | Compound
8 | 14 mL/min/kg | 1.7 nM |  |  | CC(C)n1ncnc1-c1cn2c(n1)-c1cc(C(=O)N3CCN(C(C)(C)C)CC3)ccc1OCC2
9 | 15 mL/min/kg | 0.78 nM | 15 nM | 13.6 ×10⁻⁶ cm/s | Cc1nc(-c2cn3c(n2)-c2cc([C@@H](C)N4CCN(C(C)(C)C)CC4)c(F)cc2OCC3)n(C(C)C)n1
10 | 20 mL/min/kg | 1.2 nM |  |  | CC(C)n1ncnc1-c1cn2c(n1)-c1cc(S(=O)(=O)N3CCN(C(C)(C)C)CC3)ccc1OCC2
11 | 17 mL/min/kg | 0.81 nM |  |  | CC(C)n1ncnc1-c1cn2c(n1)-c1cc([S@@+]([O-])C3CCN(C(C)(C)C)CC3)ccc1OCC2
